{
  "source": "patent US20250326866A1",
  "about": "“TRANSFERRIN RECEPTOR TARGETING PEPTIDE OLIGONUCLEOTIDE COMPLEXES AND METHODS OF USE THEREOF” (Blaze Bioscience, Inc., priority 2021, published 2025)",
  "test_system": "CRE-driven luciferase",
  "experiment": "CRE-luciferase reporter mice, in vivo brain luminescence",
  "conditions": "4 hours after IP 1.68 mg rolipram and 0.84 mg forskolin given together",
  "excerpt": "Transgenic mice expressing firefly luciferase under the control of a cyclic AMP response element (CRE) can be used. Under conditions of elevated cyclic AMP (cAMP) or other mechanisms that activate the transcription factor CRE Binding Protein 1 (CREB), cells in these mice can express luciferase, which can be measured in whole animal luminescence instrumentation (IVIS imager) after IV dosage with a luciferin formulated for animal use. Mice can be validated to express the transgene under proper response element control by dosing these mice with forskolin and rolipram, two drugs that stimulate neuronal cAMP production and inhibit its degradation (respectively). […]\nUnder conditions of elevated cyclic AMP (cAMP) or other mechanisms that activate the transcription factor CRE Binding Protein 1 (CREB), cells in these mice express luciferase, which are measured in whole animal luminescence instrumentation (IVIS imager) after IV dosage with a luciferin formulated for animal use. […]\nLuminescence was measured in anesthetized mice on a Xenogen IVIS instrument with a 1 min exposure. […] For the test peptides for comparison, identical regions of interest encompassing the entire brain were draw and quantified using LivingImage software (version 4.0, PerkinElmer, FIG. 16). […]\nTransgenic Mice were first dosed with luciferin and luminescence was measured (“unstimulated”).",
  "data": [
    {"smiles": "COc1ccc(C2CNC(=O)C2)cc1OC1CCCC1", "note": "(stereo not shown) [rolipram]", "values": [
      {"measurement": "CRE-Luc brain luminescence, positive control", "value": "high levels of luminescence"}
    ]}
  ]
}
